Values joined by “and” are separate entries in the source; they are usually repeats but may differ in a detail not shown here. Equal values may be shown once. Inconclusive results and toxic doses are left out. Rule as the data show it: active = T/C of 150% or more; inactive = T/C below 125%.
Test system: L1210 leukemia ip in BDF1 mice, survival T/C
Assay: NCI In Vivo Anticancer Drug Screen. Data for tumor model L1210 Leukemia (intraperitoneal) in B6D2F1 (BDF1) mice
Conditions: endpoint: mean survival time, higher = longer survival
In short: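 Transplanted-tumor mice were given test agent; controls received vehicle only. Survival readings from the two groups were divided (treated over control).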

[1] = dose: 100.0 mg/kg/injection, schedule: Q01DX009 (ip), vehicle: saline with Tween-80
[2] = dose: 100.0 mg/kg/injection, schedule: Q01DX009 (ip), vehicle: saline
[3] = dose: 100.0 mg/kg/injection, schedule: Q04DX003 (ip), vehicle: saline with Tween-80
[4] = dose: 200.0 mg/kg/injection, schedule: Q04DX003 (ip), vehicle: saline with Tween-80
[5] = dose: 400.0 mg/kg/injection, schedule: Q04DX003 (ip), vehicle: saline with Tween-80
[6] = dose: 200.0 mg/kg/injection, schedule: Q01DX009 (ip), vehicle: saline with Tween-80
[7] = dose: 400.0 mg/kg/injection, schedule: Q01DX009 (ip), vehicle: saline with Tween-80
[8] = dose: 200.0 mg/kg/injection, schedule: Q01DX001 (ip), vehicle: saline
[9] = dose: 100.0 mg/kg/injection, schedule: Q04DX003 (ip), vehicle: Klucel (hydroxypropylcellulose) (HPC)
[10] = dose: 200.0 mg/kg/injection, schedule: Q04DX003 (ip), vehicle: Klucel (hydroxypropylcellulose) (HPC)
[11] = dose: 400.0 mg/kg/injection, schedule: Q04DX003 (ip), vehicle: Klucel (hydroxypropylcellulose) (HPC)

Measured: T/C

CC(=O)N(NC(=O)c1cccnc1)C(C)=O
inactive: dose: 3.75 mg/kg/injection, schedule: Q01DX015 (oral), vehicle: carboxymethylcellulose (CMC) 101 % of control | dose: 7.5 mg/kg/injection, schedule: Q01DX015 (oral), vehicle: carboxymethylcellulose (CMC) 100 % of control | dose: 15.0 mg/kg/injection, schedule: Q01DX015 (oral), vehicle: carboxymethylcellulose (CMC) 100 % of control | dose: 30.0 mg/kg/injection, schedule: Q01DX015 (oral), vehicle: carboxymethylcellulose (CMC) 106 % of control | dose: 62.0 mg/kg/injection, schedule: Q01DX Z (oral), vehicle: carboxymethylcellulose (CMC) 91 % of control | dose: 125.0 mg/kg/injection, schedule: Q01DX Z (oral), vehicle: carboxymethylcellulose (CMC) 91 % of control | dose: 250.0 mg/kg/injection, schedule: Q01DX Z (oral), vehicle: carboxymethylcellulose (CMC) 95 % of control

CCOc1ccc(NC(=O)Oc2cc(C)c(Cl)cc2C(C)C)cc1
inactive: dose: 100.0 mg/kg/injection, schedule: Q04DX002 (ip), vehicle: Klucel (hydroxypropylcellulose) (HPC) 90 % of control | dose: 200.0 mg/kg/injection, schedule: Q04DX002 (ip), vehicle: Klucel (hydroxypropylcellulose) (HPC) 110 % of control | dose: 400.0 mg/kg/injection, schedule: Q04DX002 (ip), vehicle: Klucel (hydroxypropylcellulose) (HPC) 100 % of control

c1ccc2c(c1)ccc1cc3cc(NCCCCNc4ccc5nc6c(ccc7ccccc76)cc5c4)ccc3nc12
inactive: dose: 1.56 mg/kg/injection, schedule: Q01DX009 (ip), vehicle: saline with Tween-80 95 % of control | dose: 3.13 mg/kg/injection, schedule: Q01DX009 (ip), vehicle: saline with Tween-80 92 % of control | dose: 6.25 mg/kg/injection, schedule: Q01DX009 (ip), vehicle: saline with Tween-80 95 % of control and 111 % of control | dose: 12.5 mg/kg/injection, schedule: Q01DX009 (ip), vehicle: saline with Tween-80 87 % of control

O=[N+]([O-])c1ccc(CCc2ccc([N+](=O)[O-])cc2)cc1
inactive: dose: 50.0 mg/kg/injection, schedule: Q01DX001 (ip), vehicle: other 91 % of control | dose: 100.0 mg/kg/injection, schedule: Q01DX001 (ip), vehicle: other 95 % of control | dose: 200.0 mg/kg/injection, schedule: Q01DX001 (ip), vehicle: other 97 % of control | dose: 400.0 mg/kg/injection, schedule: Q01DX001 (ip), vehicle: other 95 % of control

Fc1nc2nc(C(F)(F)F)[nH]c2nc1F
inactive: dose: 25.0 mg/kg/injection, schedule: Q01DX009 (ip), vehicle: saline with Tween-80 93 % of control | dose: 50.0 mg/kg/injection, schedule: Q01DX009 (ip), vehicle: saline with Tween-80 90 % of control | [1] 95 % of control | [2] 103 % of control | [3] 95 % of control | [4] 105 % of control | [5] 90 % of control

O=c1[nH][nH]c(=O)n1O
inactive: dose: 100.0 mg/kg/injection, schedule: Q01DX001 (ip), vehicle: saline with Tween-80 102 % of control | dose: 100.0 mg/kg/injection, schedule: Q01DX009 (ip), vehicle: acetone 105 % of control | [1] 91 % of control | [2] 94 % of control and 92 % of control | [3] 101 % of control and 109 % of control | dose: 130.0 mg/kg/injection, schedule: Q01DX009 (ip), vehicle: saline 89 % of control | dose: 200.0 mg/kg/injection, schedule: Q01DX001 (ip), vehicle: saline with Tween-80 106 % of control | [6] 88 % of control | [4] 102 % of control and 105 % of control | dose: 300.0 mg/kg/injection, schedule: Q01DX009 (ip), vehicle: saline 98 % of control and 89 % of control | dose: 400.0 mg/kg/injection, schedule: Q01DX001 (ip), vehicle: saline with Tween-80 104 % of control | dose: 400.0 mg/kg/injection, schedule: Q01DX009 (ip), vehicle: acetone 88 % of control | dose: 400.0 mg/kg/injection, schedule: Q01DX009 (ip), vehicle: saline 88 % of control | [5] 98 % of control and 89 % of control

Cc1ccc(S(=O)(=O)NCN2C(=O)c3ccccc3C2=O)cc1
inactive: dose: 100.0 mg/kg/injection, schedule: Q01DX001 (ip), vehicle: acetone 98 % of control | [1] 93 % of control | dose: 100.0 mg/kg/injection, schedule: Q04DX003 (ip), vehicle: saline 94 % of control | dose: 200.0 mg/kg/injection, schedule: Q01DX001 (ip), vehicle: acetone 93 % of control | [6] 98 % of control | dose: 200.0 mg/kg/injection, schedule: Q04DX003 (ip), vehicle: saline 97 % of control | dose: 400.0 mg/kg/injection, schedule: Q01DX001 (ip), vehicle: acetone 95 % of control | [7] 97 % of control | dose: 400.0 mg/kg/injection, schedule: Q04DX003 (ip), vehicle: saline 99 % of control

Nc1ccc(C(=O)O)cn1
inactive: dose: 50.0 mg/kg/injection, schedule: Q01DX001 (ip), vehicle: saline 96 % of control | dose: 100.0 mg/kg/injection, schedule: Q01DX001 (ip), vehicle: saline 106 % of control | [8] 100 % of control

O=C1c2ccccc2C(=C/C=C/c2ccccc2)c2ccccc21
inactive: [9] 99 % of control | [10] 89 % of control | [11] 92 % of control

CCOP(=O)(NC1C2CCC(C2)C1C)OCC (stereo unspecified)
inactive: [8] 98 % of control | dose: 400.0 mg/kg/injection, schedule: Q01DX001 (ip), vehicle: saline 102 % of control

O=c1[nH]c(=O)c2ccccc2c2ccccc12
inactive: [1] 99 % of control | [3] 102 % of control | [6] 86 % of control | [4] 107 % of control | [7] 93 % of control | [5] 102 % of control

CCN(CC)c1ccc(NC(=S)Nc2cccc(C(F)(F)F)c2)c(C)c1
inactive: dose: 100.0 mg/kg/injection, schedule: Q01DX009 (ip), vehicle: Klucel (hydroxypropylcellulose) (HPC) 93 % of control | dose: 200.0 mg/kg/injection, schedule: Q01DX009 (ip), vehicle: Klucel (hydroxypropylcellulose) (HPC) 90 % of control

COc1ccc(C(SCC(NC(=O)OCc2ccccc2)C(=O)O)c2ccc(OC)cc2)cc1 (stereo unspecified)
inactive: dose: 75.0 mg/kg/injection, schedule: Q01DX001 (ip), vehicle: carboxymethylcellulose (CMC) 91 % of control | dose: 150.0 mg/kg/injection, schedule: Q01DX001 (ip), vehicle: carboxymethylcellulose (CMC) 91 % of control | dose: 300.0 mg/kg/injection, schedule: Q01DX001 (ip), vehicle: carboxymethylcellulose (CMC) 89 % of control

O=C(O)C(O)c1cccc2ccccc12 (stereo unspecified)
inactive: [1] 100 % of control | [6] 100 % of control

N#Cc1cccnc1Cl
inactive: dose: 100.0 mg/kg/injection, schedule: Q01DX001 (ip), vehicle: Klucel (hydroxypropylcellulose) (HPC) 100 % of control | [9] 96 % of control | dose: 200.0 mg/kg/injection, schedule: Q01DX001 (ip), vehicle: Klucel (hydroxypropylcellulose) (HPC) 94 % of control | [10] 87 % of control | dose: 400.0 mg/kg/injection, schedule: Q01DX001 (ip), vehicle: Klucel (hydroxypropylcellulose) (HPC) 100 % of control | [11] 99 % of control

S=C(S)Nc1ccc(Cc2ccc(NC(=S)S)cc2)cc1
inactive: [3] 95 % of control | [4] 91 % of control | [5] 98 % of control

O=C1c2cccc3cc([N+](=O)[O-])cc(c23)C(=O)N1CCCN(CCO)CCO
inactive: dose: 12.5 mg/kg/injection, schedule: Q01DX009 (ip), vehicle: Klucel (hydroxypropylcellulose) (HPC) 104 % of control | dose: 25.0 mg/kg/injection, schedule: Q01DX009 (ip), vehicle: Klucel (hydroxypropylcellulose) (HPC) 105 % of control | dose: 50.0 mg/kg/injection, schedule: Q01DX009 (ip), vehicle: Klucel (hydroxypropylcellulose) (HPC) 91 % of control

From PubChem BioAssay AID248 (DTP/NCI, 2004)
